Data from ChEMBL document CHEMBL1143001, “Designing active template molecules by combining computational de novo design and human chemist's expertise” (J Med Chem, 2007).
The source made the active and inactive calls. The rule behind the calls is not given here.

Columns and labels:
[1] = molecular target: Muscarinic acetylcholine receptor M2 (Rattus norvegicus) (UniProt P10980); experiment: Displacement of radiolabeled atropine from rat brain muscarinic M2 receptor at 10 uM
Rattus norvegicus [2] = species on record: Rattus norvegicus; experiment: Inhibition of rat brain adenylyl cyclase at 10 uM
[3] = molecular target: 4-aminobutyrate aminotransferase, mitochondrial (Rattus norvegicus) (UniProt P50554); experiment: Inhibition of rat brain GABA transaminase at 10 uM
[4] = molecular target: Muscarinic acetylcholine receptor M4 (Rattus norvegicus) (UniProt P08485); experiment: Displacement of radiolabeled atropine from rat brain muscarinic M4 receptor at 10 uM
Sus scrofa = species on record: Sus scrofa; experiment: Inhibition of pig liver catechol-O-methyl transferase at 10 uM
[5] = molecular target: Muscarinic acetylcholine receptor M5 (Rattus norvegicus) (UniProt P08911); experiment: Displacement of radiolabeled atropine from rat brain muscarinic M5 receptor at 10 uM
Bos taurus [6] = species on record: Bos taurus; experiment: Inhibition of bovine lung guanylyl cyclase at 10 uM
[7] = molecular target: Muscarinic acetylcholine receptor M3 (Rattus norvegicus) (UniProt P08483); experiment: Displacement of radiolabeled atropine from rat brain muscarinic M3 receptor at 10 uM
Rattus norvegicus [8] = species on record: Rattus norvegicus; experiment: Inhibition of rat striatum tyrosine hydroxylase at 10 uM; type: tissue-based
Canis lupus familiaris = species on record: Canis lupus familiaris; experiment: Inhibition of dog kidney (Na+/K+) ATPase at 10 uM
[9] = molecular target: Phosphodiesterase 3 (Homo sapiens) (UniProt Q14432+Q13370); experiment: Inhibition of PDE3 expressed in human platelets at 10 uM
[10] = molecular target: cGMP-specific 3',5'-cyclic phosphodiesterase (Homo sapiens) (UniProt O76074); experiment: Inhibition of PDE5 in human platelet cells at 10 uM; type: cell-based
[11] = molecular target: cGMP-dependent 3',5'-cyclic phosphodiesterase (Homo sapiens) (UniProt O00408); experiment: Inhibition of PDE2 expressed in differentiated U937 cells at 10 uM; type: cell-based; conditions: U-937
[12] = system: Protein kinase C (Rattus norvegicus); experiment: Inhibition of rat brain PKC at 10 uM
[13] = molecular target: T1, Phenylethanolamine N-methyltransferase (Bos taurus) (UniProt P10938); experiment: Inhibition of bovine adrenal medulla phenylethanolamine-N-methyl transferase at 10 uM; type: tissue-based
T1 sequence (whole entry): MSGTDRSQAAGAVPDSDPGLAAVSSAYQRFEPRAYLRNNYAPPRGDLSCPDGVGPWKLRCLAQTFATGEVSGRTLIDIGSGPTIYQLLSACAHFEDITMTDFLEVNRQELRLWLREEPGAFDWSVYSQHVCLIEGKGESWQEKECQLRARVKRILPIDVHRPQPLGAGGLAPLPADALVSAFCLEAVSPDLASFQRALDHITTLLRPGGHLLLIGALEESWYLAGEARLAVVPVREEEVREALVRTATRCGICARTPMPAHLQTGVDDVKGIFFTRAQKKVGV

[14] = molecular target: Acetylcholinesterase (Homo sapiens) (UniProt P22303); experiment: Inhibition of human recombinant AChE expressed in HEK293 cells at 10 uM; type: cell-based
[15] = molecular target: Phosphodiesterase 4 (Homo sapiens) (UniProt P27815+Q08499+Q07343+Q08493); experiment: Inhibition of PDE4 expressed in U937 cells at 10 uM; type: cell-based; conditions: U-937
[16] = molecular target: Muscarinic acetylcholine receptor M1 (Rattus norvegicus) (UniProt P08482); experiment: Displacement of radiolabeled atropine from rat brain muscarinic M1 receptor at 10 uM
[17] = molecular target: T2, Amine oxidase [flavin-containing] B (Homo sapiens, UniProt P27338); experiment: Inhibition of MAOB in human platelets at 10 uM
T2 sequence (P27338 whole entry): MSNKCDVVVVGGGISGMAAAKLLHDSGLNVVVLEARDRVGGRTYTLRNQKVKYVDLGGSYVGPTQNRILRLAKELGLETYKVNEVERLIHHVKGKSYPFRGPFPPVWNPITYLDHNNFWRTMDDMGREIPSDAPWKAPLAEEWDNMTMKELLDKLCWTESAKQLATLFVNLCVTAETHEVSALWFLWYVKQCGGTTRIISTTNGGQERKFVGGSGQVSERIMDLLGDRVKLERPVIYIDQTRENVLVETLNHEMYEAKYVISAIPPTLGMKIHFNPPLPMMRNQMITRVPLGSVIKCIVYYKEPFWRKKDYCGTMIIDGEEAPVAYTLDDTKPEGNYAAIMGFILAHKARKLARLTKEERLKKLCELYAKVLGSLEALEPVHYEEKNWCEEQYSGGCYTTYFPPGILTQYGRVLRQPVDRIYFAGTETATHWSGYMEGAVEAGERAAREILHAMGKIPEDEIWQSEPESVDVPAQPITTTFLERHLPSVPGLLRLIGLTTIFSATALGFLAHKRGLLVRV

Bos taurus [18] = species on record: Bos taurus; experiment: Inhibition of bovine PDE1 at 10 uM
Rattus norvegicus [19] = species on record: Rattus norvegicus; experiment: Displacement of radiolabeled naloxone from opiate receptor in rat cerebral cortex; type: tissue-based
Homo sapiens = species on record: Homo sapiens; experiment: Displacement of radiolabeled ligand from nicotinic acetylcholine receptor at 10 uM
Rattus norvegicus [20] = species on record: Rattus norvegicus; experiment: Displacement of radiolabeled kainic acid from rat cerebral cortex Kainate receptor at 10 uM; type: tissue-based
[21] = molecular target: Serotonin (5-HT) receptor (Rattus norvegicus) (UniProt P35563+P35365+P32305+P31388+Q9JJ16+P28564+P30994+Q62758+P08909+P14842+P30940+P35364+P19327+P28565); experiment: Displacement of radiolabeled serotonin from 5-HT receptor in rat cerebral cortex; type: tissue-based
[22] = molecular target: Adrenergic receptor alpha-2 (Rattus norvegicus) (UniProt P22086+P19328+P22909); experiment: Displacement of radiolabeled yohimbine from adrenergic alpha-2 receptor in rat cerebral cortex; type: tissue-based
[23] = molecular target: Substance-P receptor (Homo sapiens) (UniProt P25103); experiment: Displacement of radiolabeled [Sar9,Met(O2)11]-SP from NK1 receptor expressed in U373MG cells at 10 uM; type: cell-based; conditions: U-373MG ATCC
[24] = molecular target: Adrenergic receptor alpha-1 (Rattus norvegicus) (UniProt P15823+P23944+P43140); experiment: Displacement of radiolabeled prazosin from adrenergic alpha1 receptor in rat cerebral cortex; type: tissue-based
[25] = molecular target: Sodium-dependent serotonin transporter (Homo sapiens) (UniProt P31645); experiment: Displacement of radiolabeled Imipramine from human recombinant 5HT transporter expressed in HEK293 cells at 10 uM; type: cell-based
[26] = molecular target: Sodium-dependent dopamine transporter (Homo sapiens) (UniProt Q01959); experiment: Displacement of radiolabeled BTCP from human recombinant DAT expressed in CHO cells at 10 uM; type: cell-based
[27] = molecular target: Cannabinoid receptor 1 (Homo sapiens) (UniProt P21554); experiment: Displacement of radiolabeled WIN-55212-2 from human CB1 receptor expressed in HEK293 cells at 10 uM; type: cell-based
[28] = molecular target: Sodium-dependent noradrenaline transporter (Homo sapiens) (UniProt P23975); experiment: Displacement of radiolabeled protriptyline from human recombinant NET expressed in CHO cells at 10 uM; type: cell-based
Chain of Sodium-dependent noradrenaline transporter (Homo sapiens) (P23975 whole entry): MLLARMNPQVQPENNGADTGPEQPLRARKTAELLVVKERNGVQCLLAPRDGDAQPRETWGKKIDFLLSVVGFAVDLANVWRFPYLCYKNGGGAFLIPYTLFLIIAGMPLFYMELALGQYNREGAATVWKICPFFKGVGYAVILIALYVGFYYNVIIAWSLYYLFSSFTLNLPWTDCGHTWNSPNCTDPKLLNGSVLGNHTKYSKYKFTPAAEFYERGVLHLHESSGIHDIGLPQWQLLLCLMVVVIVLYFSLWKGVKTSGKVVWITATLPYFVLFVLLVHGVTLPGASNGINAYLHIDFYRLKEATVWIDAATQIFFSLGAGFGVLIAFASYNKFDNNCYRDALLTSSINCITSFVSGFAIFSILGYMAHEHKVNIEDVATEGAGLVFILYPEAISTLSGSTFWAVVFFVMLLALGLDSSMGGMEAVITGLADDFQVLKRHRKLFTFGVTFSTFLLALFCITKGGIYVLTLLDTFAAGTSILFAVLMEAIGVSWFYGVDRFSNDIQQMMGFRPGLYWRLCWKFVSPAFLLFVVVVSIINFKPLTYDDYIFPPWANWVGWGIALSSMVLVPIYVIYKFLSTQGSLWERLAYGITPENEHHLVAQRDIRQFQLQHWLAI

Chain of cGMP-dependent 3',5'-cyclic phosphodiesterase (Homo sapiens) (O00408 whole entry): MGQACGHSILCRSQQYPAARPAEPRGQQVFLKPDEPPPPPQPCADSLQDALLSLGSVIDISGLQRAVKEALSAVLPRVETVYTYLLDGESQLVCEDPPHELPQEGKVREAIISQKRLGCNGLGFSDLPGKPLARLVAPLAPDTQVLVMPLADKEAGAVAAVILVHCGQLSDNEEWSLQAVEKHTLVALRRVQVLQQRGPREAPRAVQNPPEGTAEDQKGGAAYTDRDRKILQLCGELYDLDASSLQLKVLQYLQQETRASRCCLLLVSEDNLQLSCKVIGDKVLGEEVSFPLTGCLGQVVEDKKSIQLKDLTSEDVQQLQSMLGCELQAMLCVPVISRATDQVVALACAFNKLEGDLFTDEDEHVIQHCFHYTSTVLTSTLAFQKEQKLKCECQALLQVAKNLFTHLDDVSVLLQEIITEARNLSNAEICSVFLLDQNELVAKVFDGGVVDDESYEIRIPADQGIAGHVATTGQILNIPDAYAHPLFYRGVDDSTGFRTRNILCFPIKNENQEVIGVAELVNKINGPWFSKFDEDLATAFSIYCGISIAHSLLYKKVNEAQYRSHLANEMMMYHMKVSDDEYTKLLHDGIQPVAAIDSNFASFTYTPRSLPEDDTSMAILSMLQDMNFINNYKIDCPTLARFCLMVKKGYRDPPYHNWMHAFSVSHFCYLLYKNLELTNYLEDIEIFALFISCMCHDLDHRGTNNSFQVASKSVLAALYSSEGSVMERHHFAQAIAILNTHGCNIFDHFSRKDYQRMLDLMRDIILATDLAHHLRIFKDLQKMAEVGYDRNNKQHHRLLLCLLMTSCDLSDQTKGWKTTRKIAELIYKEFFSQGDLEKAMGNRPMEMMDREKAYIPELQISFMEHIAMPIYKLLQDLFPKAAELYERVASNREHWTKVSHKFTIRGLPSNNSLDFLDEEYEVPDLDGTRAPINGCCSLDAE
Chain of Acetylcholinesterase (Homo sapiens) (P22303 whole entry): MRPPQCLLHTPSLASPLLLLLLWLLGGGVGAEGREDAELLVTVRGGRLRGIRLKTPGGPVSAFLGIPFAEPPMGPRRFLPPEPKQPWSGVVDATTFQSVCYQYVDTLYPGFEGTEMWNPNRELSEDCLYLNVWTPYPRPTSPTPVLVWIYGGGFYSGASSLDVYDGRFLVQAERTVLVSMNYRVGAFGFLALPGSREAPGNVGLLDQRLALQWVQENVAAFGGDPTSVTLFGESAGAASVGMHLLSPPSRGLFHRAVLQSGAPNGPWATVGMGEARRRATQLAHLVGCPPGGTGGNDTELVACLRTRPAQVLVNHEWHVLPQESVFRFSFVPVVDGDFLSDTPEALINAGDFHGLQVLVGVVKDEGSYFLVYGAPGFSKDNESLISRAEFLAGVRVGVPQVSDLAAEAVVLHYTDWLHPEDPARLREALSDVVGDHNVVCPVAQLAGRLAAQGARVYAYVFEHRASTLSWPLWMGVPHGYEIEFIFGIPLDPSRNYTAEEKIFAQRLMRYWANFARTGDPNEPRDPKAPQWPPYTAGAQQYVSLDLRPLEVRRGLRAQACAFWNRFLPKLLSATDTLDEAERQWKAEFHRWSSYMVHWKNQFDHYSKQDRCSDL
Chain of 4-aminobutyrate aminotransferase, mitochondrial (Rattus norvegicus) (P50554 28-500 limits assumed): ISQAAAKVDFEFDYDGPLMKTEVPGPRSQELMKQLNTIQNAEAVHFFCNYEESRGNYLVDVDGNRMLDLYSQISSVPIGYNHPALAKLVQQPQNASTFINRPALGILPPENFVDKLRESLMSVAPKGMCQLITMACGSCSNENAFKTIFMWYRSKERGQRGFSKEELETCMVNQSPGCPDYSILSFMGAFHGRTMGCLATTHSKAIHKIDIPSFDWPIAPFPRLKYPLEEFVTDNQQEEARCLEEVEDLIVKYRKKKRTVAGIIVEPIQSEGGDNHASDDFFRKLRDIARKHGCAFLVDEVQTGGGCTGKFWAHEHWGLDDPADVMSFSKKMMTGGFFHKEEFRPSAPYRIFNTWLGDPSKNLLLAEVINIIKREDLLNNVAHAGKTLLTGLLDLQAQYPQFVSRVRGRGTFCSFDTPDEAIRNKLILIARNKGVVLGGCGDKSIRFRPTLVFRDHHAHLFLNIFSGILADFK
Chain of Muscarinic acetylcholine receptor M4 (Rattus norvegicus) (P08485 whole entry): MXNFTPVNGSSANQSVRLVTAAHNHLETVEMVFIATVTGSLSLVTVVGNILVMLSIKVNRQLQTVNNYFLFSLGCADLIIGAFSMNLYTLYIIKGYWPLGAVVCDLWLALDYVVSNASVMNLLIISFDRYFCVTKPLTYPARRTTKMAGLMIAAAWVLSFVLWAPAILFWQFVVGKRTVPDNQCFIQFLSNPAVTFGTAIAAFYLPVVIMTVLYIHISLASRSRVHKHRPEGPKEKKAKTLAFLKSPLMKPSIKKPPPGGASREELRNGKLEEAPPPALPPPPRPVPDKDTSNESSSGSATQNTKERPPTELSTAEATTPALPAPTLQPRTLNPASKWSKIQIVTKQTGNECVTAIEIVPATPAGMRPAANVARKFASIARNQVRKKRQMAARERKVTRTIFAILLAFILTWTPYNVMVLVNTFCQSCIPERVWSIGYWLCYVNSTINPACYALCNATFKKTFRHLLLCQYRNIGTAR
Chain of Muscarinic acetylcholine receptor M1 (Rattus norvegicus) (P08482 whole entry): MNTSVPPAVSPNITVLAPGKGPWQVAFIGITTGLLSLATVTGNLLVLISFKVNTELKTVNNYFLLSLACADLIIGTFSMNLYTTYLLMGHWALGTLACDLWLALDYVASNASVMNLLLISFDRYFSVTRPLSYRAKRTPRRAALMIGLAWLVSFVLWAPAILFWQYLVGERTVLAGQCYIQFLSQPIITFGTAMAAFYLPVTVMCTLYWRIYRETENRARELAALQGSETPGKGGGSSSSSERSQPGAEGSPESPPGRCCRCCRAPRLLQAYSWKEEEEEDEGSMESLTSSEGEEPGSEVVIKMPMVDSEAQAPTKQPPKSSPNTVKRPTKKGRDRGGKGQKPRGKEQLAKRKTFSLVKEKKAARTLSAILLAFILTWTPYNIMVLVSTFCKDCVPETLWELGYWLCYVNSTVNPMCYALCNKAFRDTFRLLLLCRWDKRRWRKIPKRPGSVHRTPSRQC
Chain of Muscarinic acetylcholine receptor M5 (Rattus norvegicus) (P08911 whole entry): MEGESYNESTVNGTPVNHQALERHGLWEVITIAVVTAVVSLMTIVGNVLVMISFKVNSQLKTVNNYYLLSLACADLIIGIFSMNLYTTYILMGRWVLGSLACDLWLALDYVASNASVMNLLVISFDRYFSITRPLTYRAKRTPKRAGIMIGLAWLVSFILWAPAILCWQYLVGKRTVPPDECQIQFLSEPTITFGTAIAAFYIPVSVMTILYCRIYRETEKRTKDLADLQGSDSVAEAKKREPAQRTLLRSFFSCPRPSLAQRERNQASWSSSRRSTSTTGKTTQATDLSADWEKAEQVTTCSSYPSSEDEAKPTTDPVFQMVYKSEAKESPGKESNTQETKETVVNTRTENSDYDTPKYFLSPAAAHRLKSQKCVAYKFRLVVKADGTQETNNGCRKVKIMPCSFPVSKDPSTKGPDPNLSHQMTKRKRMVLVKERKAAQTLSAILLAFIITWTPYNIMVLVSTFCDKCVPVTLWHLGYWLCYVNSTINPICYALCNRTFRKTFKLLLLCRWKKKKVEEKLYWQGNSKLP
Chain of Muscarinic acetylcholine receptor M3 (Rattus norvegicus) (P08483 whole entry, looked up): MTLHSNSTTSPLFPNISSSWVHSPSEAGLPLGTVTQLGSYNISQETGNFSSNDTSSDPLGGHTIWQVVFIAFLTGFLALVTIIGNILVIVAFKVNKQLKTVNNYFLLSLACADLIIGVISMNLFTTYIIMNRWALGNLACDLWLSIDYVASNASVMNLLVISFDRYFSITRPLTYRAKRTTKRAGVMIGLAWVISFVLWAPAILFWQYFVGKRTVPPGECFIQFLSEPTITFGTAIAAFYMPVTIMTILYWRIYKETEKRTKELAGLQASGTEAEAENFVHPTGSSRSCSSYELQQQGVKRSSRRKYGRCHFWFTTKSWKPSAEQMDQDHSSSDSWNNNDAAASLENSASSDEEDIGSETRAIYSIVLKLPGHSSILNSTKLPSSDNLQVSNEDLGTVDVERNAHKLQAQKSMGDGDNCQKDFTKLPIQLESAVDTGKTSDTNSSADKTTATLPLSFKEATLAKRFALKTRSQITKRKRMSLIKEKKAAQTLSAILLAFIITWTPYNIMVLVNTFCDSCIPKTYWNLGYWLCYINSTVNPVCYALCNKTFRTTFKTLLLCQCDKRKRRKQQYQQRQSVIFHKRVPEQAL

NCc1cccc(CC2CCCNC2=O)c1 (centres undefined)
inhibition [1]: 50%
Activity (Rattus norvegicus [2]): inactive
Activity [3]: inactive
inhibition [4]: 50%
Activity (Sus scrofa): inactive
inhibition [5]: 50%
Activity (Bos taurus [6]): inactive
inhibition [7]: 50%
Activity (Rattus norvegicus [8]): inactive
Activity (Canis lupus familiaris): inactive
Activity [9]: inactive
Activity [10]: inactive
Activity [11]: inactive
Activity [12]: inactive
Activity [13]: inactive
Activity [14]: inactive
Activity [15]: inactive
inhibition [16]: 50%
Activity [17]: Not Active
Activity (Bos taurus [18]): inactive

N#Cc1cccc(CC2CCCNC2=O)c1 (centres undefined)
Activity (Rattus norvegicus [2]): inactive
Activity [3]: inactive
Activity (Sus scrofa): inactive
Activity (Bos taurus [6]): inactive
Activity (Rattus norvegicus [8]): inactive
Activity (Canis lupus familiaris): inactive
Activity [9]: inactive
Activity [10]: inactive
Activity [11]: inactive
Activity [12]: inactive
Activity [13]: inactive
Activity [14]: inactive
Activity [15]: inactive
Activity [17]: Not Active
Activity (Bos taurus [18]): inactive

O=C(O)CCC(=O)Nc1ccc(-c2ccoc2)cc1
Activity (Rattus norvegicus [2]): inactive
Activity [3]: inactive
Activity (Sus scrofa): inactive
Activity (Bos taurus [6]): inactive
Activity (Rattus norvegicus [8]): inactive
Activity (Canis lupus familiaris): inactive
Activity [9]: inactive
Activity [10]: inactive
Activity [11]: inactive
Activity [12]: inactive
Activity [13]: inactive
Activity [14]: inactive
Activity [15]: inactive
Activity [17]: Not Active
Activity (Bos taurus [18]): inactive

O=C(O)c1ccccc1C1CCCNC1 (centres undefined)
Activity [1]: inactive
Activity (Rattus norvegicus [19]): inactive
Activity (Rattus norvegicus [2]): inactive
Activity [3]: inactive
Activity [4]: inactive
Activity (Homo sapiens): inactive
Activity (Sus scrofa): inactive
Activity [5]: inactive
Activity (Rattus norvegicus [20]): inactive
Activity (Bos taurus [6]): inactive
Activity [21]: inactive
Activity [22]: inactive
Activity [23]: inactive
Activity [7]: inactive
Activity (Rattus norvegicus [8]): inactive
Activity (Canis lupus familiaris): inactive
Activity [9]: inactive
Activity [10]: inactive
Activity [11]: inactive
Activity [24]: inactive
Activity [25]: inactive
Activity [12]: inactive
Activity [13]: inactive
Activity [26]: inactive
Activity [27]: inactive
Activity [14]: inactive
Activity [15]: inactive
Activity [16]: inactive
Activity [17]: Not Active
Activity [28]: inactive
Activity (Bos taurus [18]): inactive

Nc1ccc(-c2ccoc2)cc1
Activity (Rattus norvegicus [2]): inactive
Activity [3]: inactive
Activity (Sus scrofa): inactive
Activity (Bos taurus [6]): inactive
Activity (Rattus norvegicus [8]): inactive
Activity (Canis lupus familiaris): inactive
Activity [9]: inactive
Activity [10]: inactive
Activity [11]: inactive
Activity [12]: inactive
Activity [13]: inactive
Activity [14]: inactive
Activity [15]: inactive
Activity [17]: Not Active
inhibition [28]: 77%
Activity (Bos taurus [18]): inactive

OCc1ccccc1C1CCCNC1 (centres undefined)
inhibition (Rattus norvegicus [19]; concentration not given here): 35%
Activity (Rattus norvegicus [2]): inactive
Activity [3]: inactive
inhibition (Homo sapiens): 45%
Activity (Sus scrofa): inactive
Activity (Bos taurus [6]): inactive
inhibition ([21]; concentration not given here): 39%
inhibition ([22]; concentration not given here): 62%
Activity (Rattus norvegicus [8]): inactive
Activity (Canis lupus familiaris): inactive
Activity [9]: inactive
Activity [10]: inactive
Activity [11]: inactive
inhibition ([24]; concentration not given here): 47%
Activity [12]: inactive
Activity [13]: inactive
Activity [14]: inactive
Activity [15]: inactive
Activity [17]: Not Active
Activity (Bos taurus [18]): inactive

N#Cc1cccc(CN2CCCCC2=O)c1
Activity (Rattus norvegicus [2]): inactive
Activity [3]: inactive
Activity (Sus scrofa): inactive
Activity (Bos taurus [6]): inactive
Activity (Rattus norvegicus [8]): inactive
Activity (Canis lupus familiaris): inactive
Activity [9]: inactive
Activity [10]: inactive
Activity [11]: inactive
Activity [12]: inactive
Activity [13]: inactive
Activity [14]: inactive
Activity [15]: inactive
Activity [17]: Not Active
Activity (Bos taurus [18]): inactive

Nc1cccc(-c2ccoc2)c1
Activity (Rattus norvegicus [2]): inactive
Activity [3]: inactive
inhibition (Homo sapiens): 42%
Activity (Sus scrofa): inactive
Activity (Bos taurus [6]): inactive
Activity (Rattus norvegicus [8]): inactive
Activity (Canis lupus familiaris): inactive
Activity [9]: inactive
Activity [10]: inactive
Activity [11]: inactive
Activity [12]: inactive
Activity [13]: inactive
Activity [14]: inactive
Activity [15]: inactive
Activity [17]: Not Active
inhibition [28]: 80%
Activity (Bos taurus [18]): inactive
